Patent US20240150377A1, “MODULATORS OF CYSTIC FIBROSIS TRANSMEMBRANE CONDUCTANCE REGULATOR” (VERTEX PHARMACEUTICALS INCORPORATED, priority 2020, published 2024)
Where two headings read alike, the source gives them in different places.

Target: CFTR (Homo sapiens, UniProt P13569)
Assay: Membrane potential dye, Enteroid Assay B
Assay type: cell-based
Conditions: for Ent. B Max Activity: chloride transport as % of triple combination control (Enteroid Assay B); for EC50: read-out: Ent. B EC50
How it was run: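 Human intestinal enteroids were treated with compound in maintenance medium for 18-24 h at 37° C, then loaded with methyl oxonol membrane-potential dye (25 min, room temperature). Chloride transport was triggered in chloride-free buffer with 10 μM forskolin, 100 μM IBMX and 300 nM Compound III, fluorescence read 15 min; expressed as % of triple-combination control.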

[1] = Table 8, human enteroid cells, 18-24 hours, acute 10 μM forskolin and 300 nM ivacaftor

Sequence of CFTR (P13569 with tags, fused parts or gaps DEL508-508): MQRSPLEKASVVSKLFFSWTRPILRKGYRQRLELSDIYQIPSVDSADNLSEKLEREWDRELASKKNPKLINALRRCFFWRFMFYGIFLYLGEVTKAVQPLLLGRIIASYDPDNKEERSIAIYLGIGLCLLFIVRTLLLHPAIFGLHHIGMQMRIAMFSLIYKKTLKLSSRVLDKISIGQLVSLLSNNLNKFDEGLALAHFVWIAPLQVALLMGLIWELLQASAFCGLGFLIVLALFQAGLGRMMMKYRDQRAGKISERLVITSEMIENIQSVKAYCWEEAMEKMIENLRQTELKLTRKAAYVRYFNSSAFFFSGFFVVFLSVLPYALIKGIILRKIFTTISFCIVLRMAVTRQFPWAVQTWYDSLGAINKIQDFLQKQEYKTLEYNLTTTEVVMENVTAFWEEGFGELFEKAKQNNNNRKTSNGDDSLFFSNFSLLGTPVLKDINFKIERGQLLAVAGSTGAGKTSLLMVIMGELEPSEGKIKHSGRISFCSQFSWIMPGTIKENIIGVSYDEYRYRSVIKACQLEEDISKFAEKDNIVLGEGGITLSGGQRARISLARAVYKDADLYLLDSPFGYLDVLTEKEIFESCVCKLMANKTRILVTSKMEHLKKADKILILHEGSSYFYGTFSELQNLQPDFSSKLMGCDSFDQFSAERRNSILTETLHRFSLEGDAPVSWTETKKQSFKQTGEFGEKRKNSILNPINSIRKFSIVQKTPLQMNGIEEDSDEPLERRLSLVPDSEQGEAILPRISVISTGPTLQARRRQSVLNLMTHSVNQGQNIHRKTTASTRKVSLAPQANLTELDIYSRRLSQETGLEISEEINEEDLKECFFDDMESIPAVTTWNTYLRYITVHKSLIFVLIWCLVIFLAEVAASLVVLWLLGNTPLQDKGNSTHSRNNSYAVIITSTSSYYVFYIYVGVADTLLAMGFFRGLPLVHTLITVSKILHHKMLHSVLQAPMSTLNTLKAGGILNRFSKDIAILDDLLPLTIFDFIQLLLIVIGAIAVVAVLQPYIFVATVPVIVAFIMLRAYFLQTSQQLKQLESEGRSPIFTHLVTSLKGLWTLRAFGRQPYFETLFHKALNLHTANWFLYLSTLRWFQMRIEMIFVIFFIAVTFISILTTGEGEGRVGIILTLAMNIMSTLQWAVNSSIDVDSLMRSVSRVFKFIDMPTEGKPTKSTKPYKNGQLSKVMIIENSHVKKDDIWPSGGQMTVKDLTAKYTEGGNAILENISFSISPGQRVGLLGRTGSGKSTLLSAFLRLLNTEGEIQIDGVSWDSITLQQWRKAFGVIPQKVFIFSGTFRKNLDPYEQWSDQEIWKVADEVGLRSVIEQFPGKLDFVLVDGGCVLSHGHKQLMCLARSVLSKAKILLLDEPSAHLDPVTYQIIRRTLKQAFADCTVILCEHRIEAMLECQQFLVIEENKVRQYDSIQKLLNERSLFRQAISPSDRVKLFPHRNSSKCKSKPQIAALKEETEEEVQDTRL

SMILES	Ent. B Max Activity (Table 8)	EC50 [1] [nM]	Ent. B Max Activity (%) (Table 9)	EC50 (Table 9) [nM]
Cc1cccc(C)c1-c1cc2nc(n1)NS(=O)(=O)c1cccc(c1)C(=O)N(Cc1ccc(C(C)(C)O)cc1)[C@H](CC(C)(C)O)CO2 [Compound 663]	+++ (+++ is >60%)	< 1000		
Cc1cccc(C)c1-c1cc2nc(n1)NS(=O)(=O)c1cccc(c1)C(=O)N(CC1CC(C)(O)C1)[C@H](CC(C)(C)C)CO2 (stereo partly drawn) [Compound 664]	+++ (+++ is >60%)	< 1000		
Cc1cccc(C)c1-c1cc2nc(n1)NS(=O)(=O)c1cccc(c1)C(=O)N(CC1CC(C)(O)C1)[C@H](CC(C)(C)C)CO2 (stereo partly drawn) [Compound 665]	+++ (+++ is >60%)	< 1000		
Cc1cccc(C)c1-c1cc2nc(n1)NS(=O)(=O)c1cccc(c1)C(=O)N(Cc1cnc(C(C)(C)C)nc1)[C@H](CC(C)(C)C)CO2 [Compound 788]			+++ (+++ is >600%)	< 1000
Cc1cccc(C)c1-c1cc2nc(n1)NS(=O)(=O)c1cccc(c1)C(=O)N(Cc1ccc(Oc3ncccn3)cc1)[C@H](CC(C)(C)C)CO2 [Compound 789]			+++ (+++ is >600%)	< 1000
Cc1cccc(C)c1-c1cc2nc(n1)NS(=O)(=O)c1cccc(c1)C(=O)N(Cc1ccc(C#CC(C)(C)C#N)cc1)[C@H](CC(C)(C)C)CO2 [Compound 790]			+++ (+++ is >600%)	< 1000
Cc1cccc(C)c1-c1cc2nc(n1)NS(=O)(=O)c1cccc(c1)C(=O)N(Cc1ccn3nccc3c1)[C@H](CC(C)(C)C)CO2 [Compound 791]			+++ (+++ is >600%)	< 1000
Cc1cccc(C)c1-c1cc2nc(n1)NS(=O)(=O)c1cccc(c1)C(=O)N(Cc1ccc3c(c1)C(=O)NC3)[C@H](CC(C)(C)C)CO2 [Compound 792]			+++ (+++ is >600%)	< 1000
CCCc1ccc(CN2C(=O)c3cccc(c3)S(=O)(=O)Nc3nc(cc(-c4c(C)cccc4C)n3)OC[C@H]2CC(C)(C)C)cc1 [Compound 793]			+++ (+++ is >600%)	
Cc1cccc(C)c1-c1cc2nc(n1)NS(=O)(=O)c1cccc(c1)C(=O)N(C[C@H]1CC[C@@H](C(C)(C)O)CC1)[C@H](CC(C)(C)C)CO2 [Compound 796]			+++ (+++ is >600%)	< 1000
Cc1cccc(C)c1-c1cc2nc(n1)NS(=O)(=O)c1cccc(c1)C(=O)N(CC1CCC(C(C)(C)O)CC1)[C@H](CC(C)(C)C)CO2 (stereo partly drawn) [Compound 797]			+++ (+++ is >600%)	< 1000
Cc1cccc(C)c1-c1cc2nc(n1)NS(=O)(=O)c1cccc(c1)C(=O)N(Cc1ccc3c(c1)CC(C)(C)O3)[C@H](CC(C)(C)C)CO2 [Compound 798]			+++ (+++ is >600%)	< 1000
Cc1cccc(C)c1-c1cc2nc(n1)NS(=O)(=O)c1cccc(c1)C(=O)N(Cc1ccc3c(c1)NC(=O)C3)[C@H](CC(C)(C)C)CO2 [Compound 799]			+++ (+++ is >600%)	< 1000
Cc1cccc(C)c1-c1cc2nc(n1)NS(=O)(=O)c1cccc(c1)C(=O)N(CC13CCC(O)(CC1)CC3)[C@H](CC(C)(C)C)CO2 [Compound 800]			+++ (+++ is >600%)	< 1000
Cc1cccc(C)c1-c1cc2nc(n1)NS(=O)(=O)c1cccc(c1)C(=O)N(Cc1ccc(S(F)(F)(F)(F)F)cc1)[C@H](CC(C)(C)C)CO2 [Compound 801]			+++ (+++ is >600%)	< 1000
Cc1cccc(C)c1-c1cc2nc(n1)NS(=O)(=O)c1cccc(c1)C(=O)N(Cc1ccc3c(c1)oc(=O)n3C)[C@H](CC(C)(C)C)CO2 [Compound 802]			+++ (+++ is >600%)	< 1000

SMILES	Ent. B Max Activity (Table 8)	EC50 [1] [nM]	Ent. B Max Activity (%) (Table 9)	EC50 (Table 9) [nM]
Cc1cccc(C)c1-c1cc2nc(n1)NS(=O)(=O)c1cccc(c1)C(=O)N(Cc1nc3ccccc3o1)[C@H](CC(C)(C)C)CO2 [Compound 803]			+++ (+++ is >600%)	< 1000
Cc1cccc(C)c1-c1cc2nc(n1)NS(=O)(=O)c1cccc(c1)C(=O)N(Cc1ncc(F)cn1)[C@H](CC(C)(C)C)CO2 [Compound 804]			+++ (+++ is >600%)	< 1000
Cc1cccc(C)c1-c1cc2nc(n1)NS(=O)(=O)c1cccc(c1)C(=O)N(Cc1ncc(Cl)cn1)[C@H](CC(C)(C)C)CO2 [Compound 805]			+++ (+++ is >600%)	< 1000
Cc1cccc(C)c1-c1cc2nc(n1)NS(=O)(=O)c1cccc(c1)C(=O)N(Cc1ccc(C(F)(F)F)cn1)[C@H](CC(C)(C)C)CO2 [Compound 806]			+++ (+++ is >600%)	< 1000
Cc1cccc(C)c1-c1cc2nc(n1)NS(=O)(=O)c1cccc(c1)C(=O)N(Cc1ncc(Br)cn1)[C@H](CC(C)(C)C)CO2 [Compound 807]			+++ (+++ is >600%)	< 1000
Cc1cccc(C)c1-c1cc2nc(n1)NS(=O)(=O)c1cccc(c1)C(=O)N(CC1Cc3ccccc3C1)[C@H](CC(C)(C)C)CO2 [Compound 808]	+++ (+++ is >60%)	< 1000		
Cc1cccc(C)c1-c1cc2nc(n1)NS(=O)(=O)c1cccc(c1)C(=O)N(Cc1ccc(CC(=O)N(C)C)cc1)[C@H](CC(C)(C)C)CO2 [Compound 845]			+++ (+++ is >600%)	< 1000
CNC(=O)Cc1ccc(CN2C(=O)c3cccc(c3)S(=O)(=O)Nc3nc(cc(-c4c(C)cccc4C)n3)OC[C@H]2CC(C)(C)C)cc1 [Compound 846]			+++ (+++ is >600%)	< 1000
Cc1cccc(C)c1-c1cc2nc(n1)NS(=O)(=O)c1cccc(c1)C(=O)N(Cc1ccc(CC(N)=O)cc1)[C@H](CC(C)(C)C)CO2 [Compound 847]			+++ (+++ is >600%)	< 1000
Cc1cccc(C)c1-c1cc2nc(n1)NS(=O)(=O)c1cccc(c1)C(=O)N(Cc1ccc(CC(C)(C)O)cc1)[C@H](CC(C)(C)C)CO2 [Compound 848]	+++ (+++ is >60%)	< 1000		
Cc1cccc(C)c1-c1cc2nc(n1)NS(=O)(=O)c1cccc(c1)C(=O)N(Cc1cc(C(C)(C)O)n(C)n1)[C@H](CC(C)(C)C)CO2 [Compound 849]	+++ (+++ is >60%)	< 1000		
Cc1cccc(C)c1-c1cc2nc(n1)NS(=O)(=O)c1cc(n(C)n1)C(=O)N(Cc1cnccn1)[C@H](CC(C)(C)C)CO2 [Compound 921]	+++ (+++ is >60%)	< 1000		
CCOC(=O)CCCCN1C(=O)c2cc(nn2C)S(=O)(=O)Nc2nc(cc(-c3c(C)cccc3C)n2)OC[C@H]1CC(C)(C)C [Compound 922]	++ (++ is 30-60%)	3000 to 30000		
Cc1cccc(C)c1-c1cc2nc(n1)NS(=O)(=O)c1cc(n(C)n1)C(=O)N(Cc1ccc(C(C)(C)O)cc1)[C@H](CC(C)(C)C)CO2 [Compound 923]	+++ (+++ is >60%)	< 1000		
Cc1cnc(CN2C(=O)c3cc(nn3C)S(=O)(=O)Nc3nc(cc(-c4c(C)cccc4C)n3)OC[C@H]2CC(C)(C)C)nc1 [Compound 924]			+++ (+++ is >600%)	< 1000
Cc1ncc(CN2C(=O)c3cc(nn3C)S(=O)(=O)Nc3nc(cc(-c4c(C)cccc4C)n3)OC[C@H]2CC(C)(C)C)cn1 [Compound 925]	++ (++ is 30-60%)	< 1000		
